# Reference: patent publication US11607458B2 (Georgia State University Research Foundation, Inc, priority 2017, dated 2023)
# Read-outs that look alike come from different tables or passages of the source.
# Key:
# [1] = tested on: HeLa cells; assay: Cytotoxicity studies in HeLa cells (MTT assay / crystal violet assay); type: cell-based; settings: for effect on cell viability: 20 μM alkyne alone, HeLa cells; for IC50: 48 h, read-out: IC50 in Hela cell line
# Experimental: Cell cultures. HeLa cells (ATCC) were used in the following cell culture studies. HeLa cells were maintained in DMEM (Dulbecco's Modified Eagle's Medium) supplemented with 10% fetal bovine serum (MidSci; S01520HI), and 1% penicillin-streptomycin (Sigma-Aldrich; P4333) at 37° C. with 5% CO2.
# Cytotoxicity studies. Test compound was dissolved in DMSO to afford a stock solution. The final concentration of DMSO in the cell culture was 1% (v/v) in PBS. HeLa cells were seeded in 96-well plates one day before the experiment. Different concentrations of prodrug was added into the cell culture. The cells were then incubated for 48 h at 37° C. with 5% CO2. The cell viability was tested by the MTT assay described in Levitz, S. M., et al. J Infect Dis 1985, 152, 938-945. Specifically, after 48 h of incubation, 5 mg/mL MTT (3-(4,5-dimethylthiazol-2-yl)-2,5-diphenyltetrazolium bromide) was added into the cell culture. After incubation for 4 h, the supernatant was removed and 100 μL DMSO was added into the wells containing the cells. After shaking gently for 3 min, absorbance at 605 nm was read by a plate reader.
# Cytotoxicity studies using crystal violet assay. The test compound was dissolved in DMSO to afford a stock solution. The final concentration of DMSO in cell culture was 1% (v/v) in PBS. HeLa cells were seeded in 96-well plates one day before the experiment. Different concentrations of the test compound were added into the cell culture. The cells were then incubated for 48 h at 37° C. with 5% CO2. Cell viability was tested by the crystal violet assay. Specifically, after 48 h of incubation, the cells were fixed in 100% methanol for 10 min and stained for 20 min with a 1% crystal violet solution in 50% methanol, followed by 5 repeated washings with PBS. 50 μL of DMSO was added to each well. After 20 min of incubation, the plates were analyzed in a microplate reader at 595 nm.
# Similar results were observed when the alkyne concentration was decreased to 10 μM. For example, the IC50 of TPP-Dox prodrug 1c was about 2 μM in the presence of 2b, while the IC50 for Dox prodrug 1b was well over 10 μM in the presence of 10 μM of the alkyne trigger 2a (FIG. 3a). As controls, both the IC50 values of 1c and 2b alone were higher than 40 μM, and the treatment of 20 μM of alkyne 2a or 2b alone had no effect on cell viability. […] Without such an enrichment, the reaction is expected to be slow, resulting in a lower level of active Dox being released. […] Thus, mitochondrial enrichment leads to triggered release of the drug. The same concept is applicable to the delivery of drugs through other targeting approaches such as receptor-mediated drug delivery.
# [2] = HPLC studies of reaction kinetics of tetrazine prodrugs with cyclooctyne alkynes (Kobs, second-order rate constant k2); type: physicochemical; settings: alkyne 2b; 37° C.; PBS containing 10% DMSO; n = 3
# Experimental: Stock solution preparation. Each of the tetrazine prodrugs (compounds 1b, 1c, and 1d) was dissolved in DMSO to afford a 500-μM stock solution. Each of the alkynes (compounds 2a, 2b, 2c, and 2d) was dissolved in DMSO to afford a 50-mM stock solution. Doxorubicin (Dox) and dansylamino compound (DA) 1.1b were each dissolved in DMSO to afford 1-mM stock solutions.
# (§1) HPLC method A.: mobile phase A (10 mM NaH2PO4 in water, pH=5.0) and mobile phase B (ACN), flow rate: 1 mL/min, running time: 30 min, the gradient elution method: 25% B from 0 to 6 min, 25% to 50% B from 6 to 8 min, 50% B from 8 to 15 min, 50% to 99% B from 15 to 20 min, 99% B from 20 to 25 min, 99% to 25% B from 25 to 30 min. Detection wavelength: 256 nm. Column: Waters C18 3.5 μM, 4.6×100 mm. Injection volume: 20 μL.
# as §1, with “method B:” for “method A.:”, “method: 30%” for “method: 25%”, “min, 30%” for “min, 25%”, “25 min.” for “25 min,”, “to 30%” for “to 25%”, “Detection wavelength 1: 256, detection wavelength 2: 337” for “Detection wavelength: 256”
# General procedures HPLC studies of reaction kinetics. To three 20-ml vials with 9 mL PBS were added a solution of tetrazine prodrug (500 μL, 500 μM). 350 μL, 300 μL and 250 μL DMSO were added to vial respectively, and then 150 μL, 200 μL and 250 μL of the alkyne solution (50 mM in DMSO) were added to the vials to afford final concentrations of alkyne 0.75 mM, 1 mM and 1.25 mM in PBS (10% DMSO, 25 μM prodrug) respectively. The reaction was stirred at r.t or 37° C. respectively. Every 30 min about 500 μL reaction mixtures were taken out and 20 μL of them were injected into the HPLC by the autosampler; the rest of them were poured back to the reaction mixture. (Note: In the cases of prodrugs 1d or 1b reacting with alkyne 2d at 37° C., the final concentrations of 2d in the kinetic studies were 250 μM, 300 μM and 350 μM).
# Determination of second-order rate constants. The reaction rate constant, kobs, was calculated for each concentration of the alkyne by fitting the prodrug areas versus time using eq. 1: Y=A exp(−kobst) eq. 1 where Y is the prodrug area, and t is time. The pseudo-first-order rate constant, kobs, was then plotted against the concentration of alkyne to yield the second-order rate constant using eq 2: kobs=k2[Alkyne] eq. 2 where k2 is the second-order rate constant.
# [3] = Homo sapiens, HeLa, compound alone
Structure (SMILES),effect on cell viability [1],"IC50 [1, 3] [µM]","IC50 ([1]; compound alone, listed as Alkyne 2b) [µM]",k2 at 37° C. (second order rate constant) [2] [M⁻¹ s⁻¹],IC50 ([1]; in the presence of 100 μM alkyne 2d) [µM]
"O=C(NCCC[P+](c1ccccc1)(c1ccccc1)c1ccccc1)c1ccc(CC2(O)C#CCCCCC2)cc1.[Br-] (stereo not shown) [2b, (3-(4-((1-hydroxycyclooct-2-yn-1-yl)methyl)benzamido)propyl)-triphenylphosphonium bromide]",no effect,> 40,> 50,–,–
"C#CCOc1ccc(-c2nnc(C(=O)O)nn2)cc1 [1a, 6-(4-(prop-2-yn-1-yloxy)phenyl)-1,2,4,5-tetrazine-3-carboxylic acid]",–,–,–,0.25,> 100
"O=C(O)c1ccc(CC2(O)C#CCCCCC2)cc1 (stereo not shown) [2a, 4-((1-hydroxycyclooct-2-yn-1-yl)methyl)benzoic acid]",no effect,–,–,–,–
"COc1cccc2c1C(=O)c1c(O)c3c(c(O)c1C2=O)C[C@@](O)(C(=O)CO)C[C@@H]3O[C@H]1C[C@H](N)[C@H](O)[C@H](C)O1 [Dox, Doxorubicin, reference compound]",–,~1,–,–,–
